Source: patent US7595173B2, “Low-cost production of peptides” (Dow Global Technologies Inc., priority 2002, dated 2009)
Entries after “also recorded” stand apart in the source; their conditions may differ. Ends that are not written are not given here.

System: E. coli strain BL21 (DE3)
Assay: Antimicrobial activity: dose-dependent inhibition of E. coli growth (standard growth inhibition assay)
Format: cell-based
Procedure: The antimicrobial activity of the cleaved peptides (same samples from Examples 5 and 6) was determined by measuring the dose-dependent inhibition of E. coli growth. The samples were tested for their ability to inhibit the growth of an overnight culture inoculated with E. coli strain BL21 (DE3). AMP samples were diluted serially into water in 96 well plates. Overnight cultures of E. coli BL21 (DE3) cells were diluted 1:50 into LB broth and 250 μl aliquots were transferred into 96-well plates. Each plate was incubated at 37° C. for one hour and then 50 μl of diluted peptide (or water) were added to each well. Each plate was incubated overnight at 37° C. and then the culture density was determined by measuring the apparent absorbance at 600 nm using a Spectromax Plus plate reader.

PFAKKFAKKFKKFAKKFAKFAFAFGD [D2A21 with an additional proline on the N-terminus and a glycine-aspartate dipeptide on its C-terminus]
antimicrobial activity as compared to the D2A21 core/parent peptide: equivalent antimicrobial activity; also recorded: did not adversely affect the activity
